Laboratory results from article PMC5702617, “Novel peptide probes to assess the tensional state of fibronectin fibers in cancer” (Nature Communications, 2017).
Residues, ends and D or L forms follow the SMILES beside them. *: point of attachment. X2 = N=c1ccc2c(-c3ccc(C(=O)NCCCCCN4C(=O)CC(*)C4=O)cc3C(=O)O)c3ccc(N)c(S(=O)(=O)O)c3oc-2c1S(=O)(=O)O

How the values were obtained:
relaxed Fn fibers = relaxed Fn fibers (Homo sapiens, UniProt P02751); test: Single Fn fiber binding assay, relaxed fibers; details: relaxed fibers (7% strain), 30 fibers from three independent experiments, Student's t test
Text: (§1) Fn fibers were manually pulled from a concentrated droplet of Fn in PBS (95% unlabeled and 5% Cy5-labeled protein) using a sharp pipette tip and deposited onto a flexible silicone sheet (SMI, USA)[41], rinsed and rehydrated in PBS (schematically shown in Fig. 2c). For affinity measurement Fn fibers were deposited onto a pre-stretched sheet and subsequently relaxed to about a strain of 7% as defined earlier. For measurements of the strain-sensitive binding behavior, fibers were either relaxed or stretched (about 380% strain). […]
Single Fn fiber samples were imaged with an Olympus FV 1000 confocal microscope (Olympus AG, Switzerland) using a 40× water immersion objective with a numerical aperture of 0.9. […] Samples were excited with a 488 nm laser and acceptor (Alexa-546) and donor (Alexa-488) signal was detected in two PMTs using a 12 nm detection bandwidth for donor (514–526 nm) and acceptor (566–578 nm)[25]. […]
Images were analyzed using Fiji-ImageJ and Matlab (MathWorks, Switzerland). For the Fn fiber affinity study, the pixel-wise ratio of FnBPA5-Alexa- 488 signal intensity divided by Fn-Cy5 intensity was calculated for each fiber, if intensities were above a cut-off threshold and below saturation. […] Correction factors for donor bleed through and direct activation of the acceptor used for the analysis were experimentally assessed as shown in Supplementary Fig. 5b, c. […]

[1] = target: fibrillar Fn in human dermal fibroblast ECM (Homo sapiens, UniProt P02751); test: Binding to ECM assembled by human dermal fibroblasts; format: cell-based; details: 5 μg ml−1 peptide, 1 h prior to fixation, confocal microscopy
Procedure: Normal human dermal fibroblasts (PromoCell, Vitaris AG, Switzerland) were cultured in alpha minimum essential medium (α-MEM) with 10% fetal bovine serum from BioWest (Nuaillé, France), and split before reaching confluence. Cells were seeded onto Fn-coated 8-well chambered cover glasses (Nunc^TM Lab-Tek^TM Chambered Coverglass, Thermo Fisher Scientific, Reinach, Switzerland) at a density of 50 × 10^3 cells per cm^2 and allowed to attach to the surface before medium exchange to medium containing 50 μg ml^−1 Fn. Dependent on the experiment, a fraction of only 10% of exogenous Fn was double-labeled for FRET analysis to prevent intermolecular FRET. Cells in Figs. 2h and 3 were cultured for 48 h. […] After fixation with a 4% paraformaldehyde solution in PBS, the samples shown in Fig. 3 were stained using DAPI (Invitrogen^TM, Thermo Fisher Scientific, Switzerland) and were further analyzed by means of confocal microscopy, whereas samples shown in Fig. 2h were blocked by 4% donkey serum (Abcam, Switzerland) for 1 h at room temperature and fibronectin was stained using a rabbit polyclonal anti-fibronectin antibody (1:50 diluted, ab23750, Abcam, Switzerland). Samples shown in Fig. 2h were then incubated for 1 h with a donkey anti-rabbit Alexa-546 secondary antibody (Invitrogen^TM, Thermo Fisher Scientific, Switzerland).

[2] = target: relaxed and stretched Fn fibers (Homo sapiens, UniProt P02751); test: Fn fiber stretch assay, relaxed vs stretched fibers; format: binding; details: relaxed (7% strain) vs stretched (380% strain) fibers, three independent experiments, p < 0.001
Text: as §1
Images were analyzed using Fiji-ImageJ and Matlab (MathWorks, Switzerland). For the Fn fiber affinity study, the pixel-wise ratio of FnBPA5-Alexa- 488 signal intensity divided by Fn-Cy5 intensity was calculated for each fiber, if intensities were above a cut-off threshold and below saturation. […] Correction factors for donor bleed through and direct activation of the acceptor used for the analysis were experimentally assessed as shown in Supplementary Fig. 5b, c. […] FRET acceptor channel was corrected for donor bleed through which was measured to be ~20% of the acceptor intensity (Supplementary Fig. 5b). Further analysis such as FRET-Fn-FnBPA5/Fn ratio quantifications were carried out in MatLab.

Chain of fibrillar Fn in human dermal fibroblast ECM (P02751 32-273 limits assumed): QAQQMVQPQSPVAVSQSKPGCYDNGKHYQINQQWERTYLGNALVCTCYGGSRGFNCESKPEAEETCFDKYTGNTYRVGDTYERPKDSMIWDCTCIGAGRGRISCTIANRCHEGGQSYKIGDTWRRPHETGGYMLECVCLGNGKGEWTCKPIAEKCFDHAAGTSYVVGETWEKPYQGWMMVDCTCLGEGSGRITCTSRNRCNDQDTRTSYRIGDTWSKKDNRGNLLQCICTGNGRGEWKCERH
Chain of relaxed Fn fibers (P02751 32-2477): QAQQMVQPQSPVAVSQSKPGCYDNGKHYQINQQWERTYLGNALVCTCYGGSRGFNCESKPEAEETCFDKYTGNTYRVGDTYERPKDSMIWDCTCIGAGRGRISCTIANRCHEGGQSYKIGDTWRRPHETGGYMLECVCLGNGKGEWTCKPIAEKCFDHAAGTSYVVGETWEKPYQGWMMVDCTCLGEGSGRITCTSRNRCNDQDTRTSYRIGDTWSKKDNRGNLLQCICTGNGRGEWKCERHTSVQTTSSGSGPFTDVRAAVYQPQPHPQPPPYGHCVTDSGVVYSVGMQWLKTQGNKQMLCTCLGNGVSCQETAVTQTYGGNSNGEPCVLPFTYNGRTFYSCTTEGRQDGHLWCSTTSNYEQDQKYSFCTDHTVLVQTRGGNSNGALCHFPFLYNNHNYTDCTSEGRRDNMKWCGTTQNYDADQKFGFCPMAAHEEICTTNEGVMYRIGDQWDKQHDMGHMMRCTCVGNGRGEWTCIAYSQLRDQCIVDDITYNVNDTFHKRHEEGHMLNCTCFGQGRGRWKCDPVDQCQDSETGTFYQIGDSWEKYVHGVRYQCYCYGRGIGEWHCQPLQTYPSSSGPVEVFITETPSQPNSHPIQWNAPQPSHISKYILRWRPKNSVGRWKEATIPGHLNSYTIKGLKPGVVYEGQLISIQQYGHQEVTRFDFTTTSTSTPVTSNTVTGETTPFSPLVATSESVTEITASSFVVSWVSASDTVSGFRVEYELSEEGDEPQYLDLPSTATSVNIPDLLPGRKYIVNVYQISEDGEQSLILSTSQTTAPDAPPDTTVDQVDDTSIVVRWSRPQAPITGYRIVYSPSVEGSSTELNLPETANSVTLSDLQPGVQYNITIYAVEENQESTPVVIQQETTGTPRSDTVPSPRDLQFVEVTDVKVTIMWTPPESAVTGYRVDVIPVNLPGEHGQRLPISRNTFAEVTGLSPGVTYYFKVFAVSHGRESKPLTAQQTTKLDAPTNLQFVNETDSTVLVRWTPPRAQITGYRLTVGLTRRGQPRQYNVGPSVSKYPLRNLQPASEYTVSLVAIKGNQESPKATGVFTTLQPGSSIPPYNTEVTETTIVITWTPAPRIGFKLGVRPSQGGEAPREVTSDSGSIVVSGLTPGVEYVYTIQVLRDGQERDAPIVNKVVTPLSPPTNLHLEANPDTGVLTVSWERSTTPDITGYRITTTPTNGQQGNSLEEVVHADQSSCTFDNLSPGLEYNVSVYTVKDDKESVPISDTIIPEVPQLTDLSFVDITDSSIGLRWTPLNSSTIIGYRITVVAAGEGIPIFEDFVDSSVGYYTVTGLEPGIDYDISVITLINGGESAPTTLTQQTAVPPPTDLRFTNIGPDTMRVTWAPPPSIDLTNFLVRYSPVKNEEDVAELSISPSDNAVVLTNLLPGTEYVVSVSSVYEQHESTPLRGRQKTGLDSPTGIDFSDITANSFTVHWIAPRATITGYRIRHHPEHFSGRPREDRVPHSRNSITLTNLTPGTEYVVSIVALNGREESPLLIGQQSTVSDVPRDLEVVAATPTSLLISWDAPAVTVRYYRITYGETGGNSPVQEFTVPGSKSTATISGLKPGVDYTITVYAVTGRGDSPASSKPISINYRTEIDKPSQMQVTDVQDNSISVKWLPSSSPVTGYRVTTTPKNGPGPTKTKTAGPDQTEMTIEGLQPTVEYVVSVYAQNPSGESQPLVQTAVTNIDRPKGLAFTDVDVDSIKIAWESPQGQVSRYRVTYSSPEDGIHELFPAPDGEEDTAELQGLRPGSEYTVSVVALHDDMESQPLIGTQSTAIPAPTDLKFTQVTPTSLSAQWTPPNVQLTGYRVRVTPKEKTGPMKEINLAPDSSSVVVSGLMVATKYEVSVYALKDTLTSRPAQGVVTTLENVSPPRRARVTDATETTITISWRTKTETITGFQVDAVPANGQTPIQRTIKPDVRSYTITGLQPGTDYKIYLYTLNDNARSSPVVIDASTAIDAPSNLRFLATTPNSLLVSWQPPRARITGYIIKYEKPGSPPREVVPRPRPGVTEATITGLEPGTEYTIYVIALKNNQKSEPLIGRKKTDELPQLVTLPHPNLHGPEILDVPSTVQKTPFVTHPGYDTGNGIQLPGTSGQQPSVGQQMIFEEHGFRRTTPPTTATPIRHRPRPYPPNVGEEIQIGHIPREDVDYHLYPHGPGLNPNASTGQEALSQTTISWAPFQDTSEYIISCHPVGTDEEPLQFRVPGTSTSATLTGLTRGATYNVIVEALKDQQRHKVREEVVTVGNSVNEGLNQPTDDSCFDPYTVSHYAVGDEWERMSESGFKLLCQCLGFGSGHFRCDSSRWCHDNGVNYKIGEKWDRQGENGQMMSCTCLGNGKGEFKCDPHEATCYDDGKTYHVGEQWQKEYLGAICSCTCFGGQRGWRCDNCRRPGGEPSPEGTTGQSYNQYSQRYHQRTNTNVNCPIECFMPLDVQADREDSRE
Chain of relaxed and stretched Fn fibers (P02751 32-2477): as above

CC[C@H](C)[C@H](NC(=O)CNC(=O)[C@H](CCCCN)NC(=O)[C@@H](NC(=O)[C@H](CO)NC(=O)[C@H](CCC(=O)O)NC(=O)[C@H](CCC(=O)O)NC(=O)[C@H](CC(=O)O)NC(=O)[C@H](Cc1ccccc1)NC(=O)[C@H](CCC(=O)O)NC(=O)[C@@H](NC(=O)[C@H](CC(C)C)NC(=O)[C@H](CC(N)=O)NC(=O)[C@H](CO)NC(=O)[C@H](CCC(=O)O)NC(=O)[C@@H](NC(=O)[C@@H](NC(=O)[C@@H](NC(=O)[C@H](CCC(N)=O)NC(=O)CNC(=O)CNC(=O)CNC(=O)[C@@H](N)CSC1CC(=O)N(CCCCCNC(=O)c2ccc(-c3c4ccc(=N)c(S(=O)(=O)O)c-4oc4c(S(=O)(=O)O)c(N)ccc34)c(C(=O)O)c2)C1=O)C(C)C)[C@@H](C)O)[C@@H](C)O)C(C)C)[C@@H](C)O)C(=O)N[C@H](C(=O)N[C@H](C(=O)NCC(=O)N[C@@H](C)C(=O)N[C@H](C(=O)N[C@@H](CO)C(=O)N[C@@H](CC(=O)O)C(=O)N[C@@H](Cc1c[nH]cn1)C(=O)N[C@H](C(=O)N[C@H](C(=O)N[C@H](C(=O)N[C@@H](CCC(=O)O)C(=O)N[C@@H](CC(=O)O)C(=O)N[C@H](C(=O)N[C@@H](CCCCN)C(=O)O)[C@@H](C)O)C(C)C)[C@@H](C)O)[C@@H](C)O)C(C)C)[C@@H](C)O)C(C)C (stereo partly shown) [FnBPA5-Alexa488] (H-C(X2)GGGQVTTESNLVEFDEESTKGIVTGAVSDHTTVEDTK-OH; N-terminus and C-terminus assumed)
binding to single relaxed Fn fibers (words) (relaxed Fn fibers): significant higher binding
binding to single relaxed Fn fibers (words) (relaxed Fn fibers; listed as FnBPA5-Alexa-488): significantly higher binding to Fn fibers than the scrambled control peptide
binding to fibroblast-assembled ECM [1]: Specific binding to fibrillar Fn
strain-dependent binding, FnBPA5/Fn ratio [2]: significantly higher peptide binding of FnBPA5 to relaxed Fn fibers compared to stretched fibers
